Data taken from US9067897B2, “2,4-Diaminoquinazolines for spinal muscular atrophy” (Families of Spinal Muscular Atrophy, priority 2004, dated 2015).
Where a name gives a salt, the structure may show the parent alone.

System: SMN2 promoter
Test: SMN2 promoter assay (β-lactamase reporter) in NSC-34 cells
Type: cell-based, mouse
Conditions: Mus musculus, SMN2 promoter driving β-lactamase, 12 point dose curve, average of 3-6 dose curve experiments
Excerpt: All compounds were screened using an in vitro based SMN2 promoter assay. We used NSC-34 cells, a hybrid cell line between mouse spinal cord cells and mouse neuroblastoma cells. NSC-34 cells harbor an expression plasmid containing a 3.4 kb promoter fragment of the SMN2 gene driving β-lactamase expression.
[…] […] CCF2-AM diffuses across the plasma membrane and is converted into an active β-lactamase substrate by cytoplasmic esterase. […] The fold induction is proportional to the extent of β-lactamase produced and in turn proportional to SMN2 promoter activation for a given compound relative to vehicle (DMSO) control. […] These values are used to rank activities of the compounds and derive structure activity relationship.

EC50 [nM] | SMILES
< 1000 | COc1ccccc1COc1cccc2nc(N)nc(N)c12 [Example 142, 5-(2-Methoxybenzyloxy)quinazoline-2,4-diamine]
< 1000 | Nc1nc(N)c2c(OCc3ccc(F)cc3F)cccc2n1 [Example 85, 5-(2,4-Difluorobenzyloxy)-quinazoline-2,4-diamine]
< 1000 | COc1ccc(COc2cccc3nc(N)nc(N)c23)cc1 [Example 144, 5-(4-Methoxybenzyloxy)quinazoline-2,4-diamine]
< 1000 | Nc1nc(N)c2c(OCC(O)c3ccc(C(F)(F)F)cc3)cccc2n1 (stereo not shown) [Example 163, 2-(2,4-Diaminoquinazolin-5-yloxy)-1-(4-trifluoromethylphenyl)ethanol]
< 1000 | Cc1cc(Cl)ccc1OCc1cccc2nc(N)nc(N)c12 [Example 139, 5-(4-Chloro-2-methylphenoxymethyl)quinazoline-2,4-diamine]
< 1000 | Nc1nc(N)c2c(OCC(O)c3ccccc3)cccc2n1 (stereo not shown) [Example 157, 2-(2,4-Diaminoquinazolin-5-yloxy)-1-phenyl-ethanol]
< 1000 | Nc1nc(N)c2c(O[C@@H]3C[C@H]4CC[C@@H]3C4)cccc2n1 [Example 118, 5-((1R,2R,4S)-Bicyclo[2.2.1]hept-2-yloxy)quinazoline-2,4-diamine]
< 1000 | CC1(C)[C@H]2CC[C@H](COc3cccc4nc(N)nc(N)c34)[C@@H]1C2 [Example 152, 5-((1S,2S,5S)-6,6-Dimethylbicyclo[3.1.1]hept-2-ylmethoxy) quinazoline-2,4-diamine]
1000 to 5000 | CC1=NOC(COc2cccc3nc(N)nc(N)c23)C1 (stereo not shown) [Example 33, 5-(3-Methyl-4,5-dihydroisoxazol-5-ylmethoxy)quinazoline-2,4-diamine]
< 1000 | Nc1nc(N)c2c(OCC3CCC3)cccc2n1 [Example 14, 5-(Cyclobutylmethoxy)quinazoline-2,4-diamine]
< 1000 | Nc1nc(N)c2c(OC(CO)c3ccc(Cl)cc3)cccc2n1 (stereo not shown) [Example 164, 2-(4-Chlorophenyl)-2-(2,4-diaminoquinazolin-5-yloxy)ethanol hydrochloride]
< 1000 | Nc1nc(N)c2c(Cc3ccsc3)cccc2n1 [Example 46, 5-Thiophen-3-ylmethylquinazoline-2,4-diamine]
< 1000 | Nc1nc(N)c2c(OCc3cccc(I)c3)cccc2n1 [Example 77, 5-(3-Iodo-benzyloxy)-quinazoline-2,4-diamine]
< 1000 | Cc1ccccc1COc1cccc2nc(N)nc(N)c12 [Example 7, 5-(2-Methylbenzyloxy)quinazoline-2,4-diamine]
< 1000 | Nc1nc(N)c2c(OCc3ccc(F)cc3)cccc2n1 [Example 97, 5-(4-Fluorobenzyloxy)-quinazoline-2,4-diamine]
< 1000 | Cc1ccc(OCc2cccc3nc(N)nc(N)c23)cc1 [Example 44, 5-p-Tolyloxymethylquinazoline-2,4-diamine]
< 1000 | Nc1nc(N)c2c(OCc3ccc(Br)cc3)cccc2n1 [Example 62, 5-(4-Bromobenzyloxy)-quinazoline-2,4-diamine]
< 1000 | CC(Oc1cccc2nc(N)nc(N)c12)c1cccc(C(F)(F)F)c1 (stereo not shown) [Example 95, 5-[1-(3-Trifluoromethylphenyl)-ethoxy]-quinazoline-2,4-diamine]
< 1000 | Nc1nc(N)c2c(OCc3cccc4cccnc34)cccc2n1 [Example 113, 5-(Quinolin-8-ylmethoxy)-quinazoline-2,4-diamine]
< 1000 | Nc1nc(N)c2c(N3CCCCC3)cccc2n1 [Example 59, 5-(Piperidin-1-yl)quinazoline-2,4-diamine]
< 1000 | Nc1nc(N)c2c(OC(C(=O)O)c3ccc(Cl)cc3)cccc2n1 (stereo not shown) [Example 115, (4-Chlorophenyl)-(2,4-diamino-quinazolin-5-yloxy)-acetic acid]
< 1000 | Nc1nc(N)c2c(OCc3cc(F)ccc3F)cccc2n1 [Example 84, 5-(2,5-Difluorobenzyloxy)-quinazoline-2,4-diamine]
